Earlier results as cited in patent US8263663B2, “Azide functionalized peptide targeting groups” (Intezyne Technologies, Inc., priority 2005, dated 2012).

Conditions: at similar concentrations (to 225 μg/mL)

COc1cccc2c1C(=O)c1c(O)c3c(c(O)c1C2=O)C[C@@](O)(C(=O)CO)C[C@@H]3O[C@H]1C[C@H](N)[C@H](O)[C@H](C)O1 [DOX, doxorubicin]
hemolysis: > 10%
